Where a name gives a salt, the structure may show the parent alone.
Key:
[1] = tested on: human acute myeloid leukemia cell MV4-11; assay: Anti-proliferative effect in human acute myeloid leukemia cell MV4-11 (CellTiter-Glo); type: cell-based; conditions: MV4-11, 96 h, cell proliferation, incubated for 4 days
Experimental: In this assay, the inhibitory effect of assay compounds on cell proliferation in human acute myeloid leukemia cell MV4-11 was detected by ATP fluorescence activity detection (CellTiter-Glo).
(§1) (1) Promega CellTiter-Glo luminescent cell viability assay kit (Promega-G7573). (2) 2104 EnVision® plate reader, PerkinElmer.
(§2) The tumor cell line was cultured in a 37° C., 5% CO2 incubator according to the above-mentioned culture conditions. Cells were passaged periodically, and cells in logarithmic growth phase were used for plating.
(1). Cells were stained with trypan blue and viable cells were counted; (2). The cell concentration was adjusted to an appropriate concentration; (3). 90 μL of cell suspension was added to each well of the culture plate, and each well contained 6000 cells. In the blank group and other wells, no cells were inoculated, and only 90 μL of culture medium was added; (4). The plate was incubated in an incubator at 37° C., 5% CO2, and 100% relative humidity overnight.
(1) Formulation of 10× drug solution: A sterile round bottom 96-well plate was used, and the concentration of mother solutions of WX007, WX008, WX009, WX010, WX011 and WX012 was 10 mM. 5 μL of compound was added to the first well with 5 μL of 1640 medium, and mixed well to obtain a concentration of 5 mM. 5 μL of compound from the first well was added to the third well containing 45 μL of 1640 medium and mixed well to obtain a concentration of 500 μM. 5 μL of compound from the third well was added to the fourth well containing 45 μL of 1640 medium and mixed well to obtain a concentration of 50 μM. 20 μL of compound from the fourth well was added to the fifth well containing 180 μL of 1640 medium and mixed well to obtain 5 μM mother solution. Another sterile round bottom 96-well plate was used, and 60 μL of 5 μM compound was added to the first well. 30 μL of 5 μM compound was added to the second well with 60 μL of 1640 medium, and so forth. Compounds were serially diluted 3-fold to obtain a total of 9 concentrations. To the blank control was added an equal volume of DMSO in the same dilution way.
(2) Formulation of drug solution with the final concentration: 10 μL of the 10× drug solution as prepared above was added to 90 μL of culture medium in triplicate. To the control group was added an equal volume of DMSO solution, and the cell plate was flicked, so that the solution was mixed well. To the blank group was added 10 μL of 1640 medium. The plate was gently taped, so that the solution was mixed well. The plate was placed back in 37° C., 5% CO2 incubator and incubated for 4 days.
(1) Formulation of the drug solution: A sterile round-bottom 96-well plate was used, and the stock concentration of each compound was 10 mM. 2 μL of compound in 18 μL of DMSO was added to the first well and the mixture was mixed well to obtain a concentration of 1 mM; 10 μL of compound from the first well was added to the third well containing 90 μL of 1640 medium and the mixture was mixed well to obtain a concentration of 100 μM;
(2) For WX058, WX059, WX060 and WX042, 12 μL of solution from the third well obtained above was added to the fourth well containing 108 μL of 1640 medium and the mixture was mixed well to obtain a drug with 10 μM maximum concentration.
(3) Another new sterile round bottom 96-well plate was used, and 60 μL of each drug with the maximum concentration in step (2) was placed in the first well. 60 μL of solution from the first well was added to the second well with 60 μL 1640 medium, and so forth. Compounds were serially diluted 2-fold to obtain a total of 9 concentrations.
(4) For the blank control group, an equal volume of DMSO was added in the same dilution way.
(5) 10 μL of the solution with gradient drug concentrations prepared as above was added to 90 μL of culture medium in triplicate. For the control group, an equal volume of DMSO solution was added. The cell plate was gently tapped, so that the solution was mixed well. […]

[2] = target: T1, Recombinant human-derived ALK (Homo sapiens, UniProt Q9UM73); assay: Inhibitory activity of compounds against ALK kinase (time-resolved fluorescence resonance energy transfer); type: biochemical; conditions: 30 μM ATP, 50 nM ULight-poly GT peptide
T1 construct: BAG10812.1; 1058-1620 (terminal) amino acids; GST (N); made in house
Experimental: The inhibitory activity of the compounds on ALK kinase was detected by time-resolved fluorescence resonance energy transfer method, that is, the ratio of fluorescence signals at 665 nm/615 nm was used to represent the activity of the enzyme.
Assay buffer solution: 50 mM 2-[4-(2-hydroxyethyl)-1-piperazinyl]ethanesulfonic acid buffer solution (HEPES) (pH 7.5), 10 mM MgCl2, 1 mM EDTA 0.01%, polyoxyethylene lauryl ether (Brij 35), 2 mM dithiothreitol (DTT).
Enzyme: Recombinant human-derived ALK (gene accession number: BAG10812.1; 1058-1620 (terminal) amino acids) was expressed with a N-terminal GST fusion protein (90 kDa) using a baculovirus expression system.
Enzyme substrate: 50 nM ULight-poly GT polypeptide.
Detection: europium-labeled anti-phosphotyrosine (PT66) antibody.
1. Compounds dissolved in 100% DMSO were added to 384-well plates by acoustic technique; 2. Recombinant human-derived ALK enzyme and enzyme substrate (50 nM ULight-poly GT peptide) or zymolyte (30 μM ATP) were dissolved in freshly prepared assay buffer; 3. The above ALK enzyme and enzyme substrate in the buffer solution were transferred to reaction wells; 4. Then, the zymolyte in the buffer solution was added to the above reaction wells to initiate the reaction; 5. The plate was incubated at room temperature for 1 hour; 6. The detection mixture (PT66 antibody and EDTA) was added to terminate the reaction, and the mixture was incubated at room temperature for 60 minutes; 7. Then, the plate was read using a microplate reader to obtain the ratio of fluorescence signals at 665 nm/615 nm.
Data analysis: Emission ratio (665 nm/615 nm) in the original data was involved in the calculation of the inhibition rate. The concentration and inhibition rate were analyzed using XLfit software 205 mode (4 Parameters Logistic Model) to obtain IC50 value and curve.

[3] = tested on: human lung cancer NCI-H2228 cells subcutaneous xenograft tumor; assay: In vivo pharmacodynamic study in subcutaneous xenograft tumor NOD SCID mouse model of human lung cancer NCI-H2228 cells; set-up: species or system NOD SCID mice; conditions: 50 mg/kg subcutaneous injection once a day
Experimental: Human lung cancer cell NCI-H2228 (ATCC® CRL-5935™) was cultured in vitro in an adherent monolayer in RPMI 1640 medium supplemented with 10% fetal bovine serum, 100 U/mL penicillin and 100 μg/mL streptomycin in an incubator at 37° C. and 5% CO2. Cells were passaged by routine digestion with trypsin-EDTA twice a week. When the cell saturation was 80%-90% and the number met the requirement, the cells are collected, counted, and inoculated.
NOD SCID mice, female, 6-8 weeks old, weighing 18-22 grams.
0.2 mL (10×10^6 cells) of NCI-H2228 cells (with matrigel, v/v 1:1) were subcutaneously inoculated into the right back of each mouse. The administration by group was started when the average tumor volume reached 171 mm^3. One administration cycle comprised seven days, with administration once a day. The assay compounds were administered by subcutaneous injection for a total of four cycles. The subcutaneous injection doses of the assay compounds WX001 and WX002 were both 50 mg/kg. Tumor diameter was measured twice a week with a vernier caliper, and tumor volume was measured in cubic millimeters and calculated by the following formula: V=0.5a×b^2, where a and b are the long and short diameters of the tumor, respectively. The tumor-inhibitory efficacy of the assay compounds was evaluated by using TGI (%). TGI (%) reflects a tumor growth inhibition rate. TGI (%)=[1−(Average tumor volume at the end of administration of a treatment group−Average tumor volume at the beginning of administration of the treatment group)/(Average tumor volume at the end of treatment of a vehicle control group−Average tumor volume at the beginning of treatment of the vehicle control group)]×100%.

[4] = tested on: human lung cancer cell NCI-H2228; assay: Anti-proliferative effect in human lung cancer cell NCI-H2228 (CellTiter-Glo); type: cell-based; conditions: NCI-H2228, 72 h, cell proliferation, cultured for 3 days
Experimental: In this assay, the inhibitory effect of assay compounds on cell proliferation was assayed in human lung cancer cell NCI-H2228.
as §1, §2
(1). Cells were stained with trypan blue and viable cells were counted; (2). The cell concentration was adjusted to an appropriate concentration;
(3). 90 μL of cell suspension was added to each well of the culture plate as shown in the table above, and cell-free culture medium was added to the blank control well; (4). The plate was incubated in an incubator at 37° C., 5% CO2, and 100% relative humidity overnight.
Preparation of a mother solution storage plate with 400 times the starting compound concentration: the compounds were diluted serially with DMSO from the highest concentration to the lowest concentration. The plate was prepared freshly every time it was used.
(1). 78 μL of cell culture medium was added to a 96-well plate with a V-shaped bottom. […]
(1). […] The culture plate was left at room temperature for 10 minutes to stabilize the luminescence signal; (9). The luminescent signal was detected on a 2104 EnVision plate reader. […]

T1 sequence (Q9UM73 1058-1620): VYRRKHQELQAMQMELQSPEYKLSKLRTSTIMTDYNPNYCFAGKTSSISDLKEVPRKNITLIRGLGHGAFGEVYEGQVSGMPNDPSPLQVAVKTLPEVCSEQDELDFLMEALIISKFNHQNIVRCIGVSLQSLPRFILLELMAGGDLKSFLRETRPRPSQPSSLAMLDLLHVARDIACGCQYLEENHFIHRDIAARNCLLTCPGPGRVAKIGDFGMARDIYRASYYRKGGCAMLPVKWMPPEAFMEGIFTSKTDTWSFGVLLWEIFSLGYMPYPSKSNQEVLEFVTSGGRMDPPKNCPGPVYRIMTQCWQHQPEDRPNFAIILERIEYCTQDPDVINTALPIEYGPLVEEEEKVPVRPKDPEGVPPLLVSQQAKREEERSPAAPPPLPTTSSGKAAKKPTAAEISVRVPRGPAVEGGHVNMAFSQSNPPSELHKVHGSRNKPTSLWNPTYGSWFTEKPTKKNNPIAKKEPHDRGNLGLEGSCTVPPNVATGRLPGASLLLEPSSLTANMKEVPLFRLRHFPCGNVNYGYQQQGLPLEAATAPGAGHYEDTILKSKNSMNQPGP

| IC50 [1] | SMILES | other results |
| --- | --- | --- |
| 51.7 nM | Cc1sc2c(c1C)C(c1ccc(Cl)cc1)=N[C@@H](CC(=O)NCCCCCCNc1ccc3c(ccc4occ(C5CCC(=O)NC5=O)c43)c1)c1nnc(C)n1-2 (some centres unmarked) [WX009] |  |
|  | Cc1cc(Nc2ncc(Cl)c(Nc3ccccc3S(=O)(=O)C(C)C)n2)c(OC(C)C)cc1C1CCN(CCOc2ccc3occ(C4CCC(=O)NC4=O)c3c2)CC1 (centres unmarked) [WX006] | IC50 [2]: 12.2 nM |
| 70.6 nM | Cc1sc2c(c1C)C(c1ccc(Cl)cc1)=N[C@@H](CC(=O)NCCCCCCOc1ccc3c(ccc4occ(C5CCC(=O)NC5=O)c43)c1)c1nnc(C)n1-2 (some centres unmarked) [WX012] |  |
| 61.3 nM | Cc1sc2c(c1C)C(c1ccc(Cl)cc1)=N[C@@H](CC(=O)NCCNc1ccc3c(ccc4occ(C5CCC(=O)NC5=O)c43)c1)c1nnc(C)n1-2 (some centres unmarked) [WX010] |  |
| 35.4 nM | Cc1sc2c(c1C)C(c1ccc(Cl)cc1)=N[C@@H](CC(=O)NCCCNC(=O)COc1ccc3occ(C4CCC(=O)NC4=O)c3c1)c1nnc(C)n1-2 (some centres unmarked) [WX042] |  |
| 73.8 nM | Cc1sc2c(c1C)C(c1ccc(Cl)cc1)=N[C@@H](CC(=O)NCCOCCOc1ccc3c(ccc4occ(C5CCC(=O)NC5=O)c43)c1)c1nnc(C)n1-2 (some centres unmarked) [WX011] |  |
| 22.5 nM | Cc1sc2c(c1C)C(c1ccc(Cl)cc1)=N[C@@H](CC(=O)NCCOCCOCCOc1ccc3c(ccc4occ(C5CCC(=O)NC5=O)c43)c1)c1nnc(C)n1-2 (some centres unmarked) [WX008] |  |
| 202 nM | Cc1sc2c(c1C)C(c1ccc(Cl)cc1)=N[C@@H](CC(=O)NCCOc1ccc3c(ccc4occ(C5CCC(=O)NC5=O)c43)c1)c1nnc(C)n1-2 (some centres unmarked) [WX007] |  |
|  | Cc1cc(Nc2ncc(Cl)c(Nc3ccccc3S(=O)(=O)C(C)C)n2)c(OC(C)C)cc1C1CCN(C(=O)COc2ccc3occ(C4CCC(=O)NC4=O)c3c2)CC1 (centres unmarked) [WX003] | IC50 [2]: 33.8 nM |
|  | Cc1cc(Nc2ncc(Cl)c(Nc3ccccc3S(=O)(=O)C(C)C)n2)c(OC(C)C)cc1C1CCN(CC(=O)NCc2ccc3c(ccc4occ(C5CCC(=O)NC5=O)c43)c2)CC1 (centres unmarked) [WX002 hydrochloride] | Tumor volume (Day 1) ([3]; Day 1): 172 ± 11 mm^3; TGI (Day 28) ([3]; Day 28): 100.38%; Tumor volume (Day 28) ([3]; Day 28): 169 ± 30 mm^3; IC50 [4]: 160 nM; IC50 [2]: 15.6 nM |

| SMILES | IC50 [1] | other results |
| --- | --- | --- |
| Cc1sc2c(c1C)C(c1ccc(Cl)cc1)=N[C@@H](CC(=O)NCCOc1ccc3occ(C4CCC(=O)NC4=O)c3c1)c1nnc(C)n1-2 (some centres unmarked) [WX059] | 16.6 nM |  |
| Cc1sc2c(c1C)C(c1ccc(Cl)cc1)=N[C@@H](CC(=O)NCCCOc1ccc3occ(C4CCC(=O)NC4=O)c3c1)c1nnc(C)n1-2 (some centres unmarked) [WX058] | 11.3 nM |  |
| Cc1sc2c(c1C)C(c1ccc(Cl)cc1)=N[C@@H](CC(=O)NCCCCOc1ccc3occ(C4CCC(=O)NC4=O)c3c1)c1nnc(C)n1-2 (some centres unmarked) [WX060] | 17 nM |  |
